In patent US5739114A, “Immunosuppressive cyclolignan derivatives” (Universidad de Salamanca, priority 1994, dated 1998):
Values after ≈ are worked out from the molar mass of the structure shown. Where two headings read alike, the source gives them in different places.

Legend:
[1] = test system: Graft-vs.-Host Reaction (spleen weight); experiment: in vivo Graft-vs.-Host Reaction (GVHR) test
Excerpt: ^b % reduction of spleen weight with respect to non treated animals.

[2] = Cytotoxicity for monkey kidney fibroblasts; format: cell-based
Excerpt: ^d IC50 (μg/ml) for monkey kidney fibroblasts.

graft (implant duration) = experiment: in vivo Suppression Graft (SG) test
Excerpt: ^c % of implant duration with respect to non treated animals.
^e 20% of the animals died in this experiment before the end of the
program (30 days of observation).

## COC(=O)C1Oc2cc3c(cc2O1)[C@@H](c1cc(OC)c(OC)c(OC)c1)[C@@H]1C(=O)OC[C@@H]1C3 (stereo partly shown) [AP-47, 10-methoxycarbonyldeoxypicropodophyllin]
[1]; dose 10 mg/kg/day (7 days)
  GVHR index: % reduction of spleen weight with respect to non treated animals: 56%
[2]; read-out: Cytotox. IC50
  CC50: 2.5 µg/mL (≈ 5.48 µM)

## COc1cc([C@@H]2c3cc(O)c(O)cc3[C@@H](O)[C@H]3COC(=O)[C@H]23)cc(OC)c1OC [AP-39, 3,4-O-demethyleneepipodophyllotoxin]
Graft (implant duration); dose 1.5 mg/kg/day (7 days)
  SG index: % of implant duration with respect to non treated animals: 200%
[2]; read-out: Cytotox. IC50
  CC50: > 10 µg/mL

## O=P1(N(CCCl)CCCl)NCCCO1 (stereo not shown) [Cyclophosphamide, reference compound]
[1]; dose 200 mg/kg/day (7 days)
  GVHR index: % reduction of spleen weight with respect to non treated animals: 79%

## COC(=O)C1C2CN(c3ccccc3)N=C2c2cc3c(cc2C1c1cc(OC)c(OC)c(OC)c1)OCO3 (stereo not shown) [LL-4, methyl phenylpyrazopodophyllate]
[1]; dose 1 mg/kg/day (7 days)
  GVHR index: % reduction of spleen weight with respect to non treated animals: 53%
[2]; read-out: Cytotox. IC50
  CC50: 1 µg/mL (≈ 1.94 µM)

## COc1cc(C2c3cc4c(cc3C3=NOCC3C2C(=O)O)OCO4)cc(OC)c1OC (stereo not shown) [LL-11, isoxazopodophyllic acid]
Graft (implant duration); dose 0.15 mg/kg/day (7 days)
  SG index: % of implant duration with respect to non treated animals: 204%
[2]
  CC50: > 10 µg/mL

## COc1cc([C@@H]2c3cc(O)c(O)cc3[C@H](O)[C@H]3COC(=O)[C@H]23)cc(OC)c1OC [AP-40, 3,4-O-demethylenepodophyllotoxin]
Graft (implant duration); dose 1.5 mg/kg/day (7 days)
  SG index: % of implant duration with respect to non treated animals: 229%
[2]; read-out: Cytotox. IC50
  CC50: 0.5 µg/mL (≈ 1.24 µM)

## COc1cc([C@@H]2c3cc(O)c(O)cc3C[C@H]3COC(=O)[C@H]32)cc(OC)c1OC [AP-37, 3,4-O-demethylenedeoxypicropodophyllin]
[1]; dose 0.1 mg/kg/day (7 days)
  GVHR index: % reduction of spleen weight with respect to non treated animals: 58%
[2]; read-out: Cytotox. IC50
  CC50: > 20 µg/mL
